Patent US7045116B2, “Treatment of osteomyelitis with radiopharmaceuticals” (priority 2001, dated 2006)

What was measured:
[1] = Biodistribution of radiopharmaceuticals in rats with tourniquet on left hind leg; type: in vivo, Sprague-Dawley rats; settings: for Femoral Percentage Dose per Gram / Tibial Percentage Dose per Gram: i.v. tail vein; for Tibial Percentage Dose per Gram: sacrifice after two hours
Excerpt: Rat biodistribution studies were done on Male Sprague-Dawley rats weighing 180–200 g that had been acclimated for approximately one week prior to this study. Four test complexes were used, Ho-DOTMP (Example 3), Ho-EDTMP (Example 4), Sm-DOTMP (Example 5) and Sm-EDTMP (Example 6). The rats were placed in a restraining cage that afforded accessibility to the left hind leg and tail. Prior to injection a tie wrap tourniquet was placed on the left hind femur above the knee to restrict blood flow. The amount of pressure induced by the tourniquet was standardized by using a tie wrap gun and was sufficient to stop arterial flow. Three rats per complex each received a 100.0 μL intravenous injection in a lateral tail vein. The tourniquets were allowed to remain in place for 5, 10 or 20 minutes post injection and were then removed. The rats were then watched for two hours, the usual biodistribution period used to allow excretion of all radioactive complexes not bound to tissue. The rats were then sacrificed for removal of tibias. The number of radioactive counts were then determined and compared to the average of number of counts of three 100.0 μL standards of the same material that was injected. Several additional tissues (femur, injection site, liver, kidney, spleen, muscle, and blood) were collected and counted for rats that had the 20 minutes restricted blood flow to check for expected renal excretion of radioactive complexes.
This reflects the concentration of the radioactive complex in the bone. Table 1 combines the data on the radioactivity found in the tibias of the rats from Examples 3 to 6 for each of the three times of tourniquet placement. Table 2 combines the data on the radioactivity found in the femurs of the rats from Examples 3 to 6 for the tourniquets applied for 20 minutes. The degree of “protection” of the bone by the tourniquet can be seen by comparison of the radioactivity in the bones on the left side (“protected” by the tourniquet for the time specified) as compared to the corresponding bones on the right side (fully exposed to the systemic, intravenous dose).

Staphylococcus aureus = test: Treatment of osteomyelitis in rats with 166Ho-DOTMP (serial radiographs of the leg); type: in vivo, Sprague Dawley rats; settings: rats with S. aureus osteomyelitis of left leg; intramuscular injection of 30 Gray (9 milliCurie); tourniquet above knee released after 10 minutes; in two weeks
Method: This example describes the successful treatment of osteomyelitis in rats using ^166Ho-DOTMP. Four 150 g male Sprague Dawley rats were anesthetized and prepared for surgery by shaving the left leg. The skin over the left tibia and fibula was opened, a hole was drilled into the bone marrow, and an 18-gauge needle was inserted into the bone marrow. Through the needle, a piece of 0 surgical suture and approximately 0.1 ml of Staphylococcus aureus culture in Trypticase soy broth were introduced into the bone marrow. The needle was removed and the bone defect sealed with cyanoacrylate glue. The skin was closed with 0 surgical suture. The rats were followed with serial radiographs of the left leg. Lytic lesions diagnostic of osteomyelitis developed in the fibula over the next three weeks. The entire bone appeared radiolucent. Two rats were followed without treatment. One week later, both of the rats died. […] Culture of the fluid grew Gram positive cocci consistent with the original Staphylococcus aureus infection. Two rats were treated with ^166Ho-DOTMP. A tourniquet was placed on the left leg above the knee. An intramuscular injection of 30 Gray (9 milliCurie) of ^166Ho-DOTMP was given after application of the tourniquet. The tourniquet was released after 10 minutes. The rats were followed with continued serial radiographs of the leg.

[2] = Left Femur (partially protected by tourniquet), tourniquet 20 minute
[3] = Left Tibia (protected by tourniquet), tourniquet 5 minute
[4] = Left Tibia (protected by tourniquet), tourniquet 10 minute
[5] = Left Tibia (protected by tourniquet), tourniquet 20 minute
[6] = Right Femur (unprotected), tourniquet 20 minute
[7] = Right Tibia (unprotected), tourniquet 5 minute
[8] = Right Tibia (unprotected), tourniquet 10 minute
[9] = Right Tibia (unprotected), tourniquet 20 minute

Row | Compound | Dose per Gram in Left Leg as a Percentage of Dose per Gram in Right Leg ([1]; Femur, tourniquet 20 minute) | Femoral Percentage Dose per Gram [1, 2] | Tibial Percentage Dose per Gram [1, 3] | Tibial Percentage Dose per Gram [1, 4] | Tibial Percentage Dose per Gram [1, 5] | Femoral Percentage Dose per Gram [1, 6] | Tibial Percentage Dose per Gram [1, 7] | Tibial Percentage Dose per Gram [1, 8] | Tibial Percentage Dose per Gram [1, 9] | Dose per Gram in Left Leg as a Percentage of Dose per Gram in Right Leg ([1]; Tibia, tourniquet 5 minute) | Dose per Gram in Left Leg as a Percentage of Dose per Gram in Right Leg ([1]; Tibia, tourniquet 10 minute) | Dose per Gram in Left Leg as a Percentage of Dose per Gram in Right Leg ([1]; Tibia, tourniquet 20 minute) | Radiographic appearance of tibia and fibula (Staphylococcus aureus)
1 | O=P(O)(O)CN1CCN(CP(=O)(O)O)CCN(CP(=O)(O)O)CCN(CP(=O)(O)O)CC1.[Ho+3] [Ho-DOTMP] | 24% | 1.33 Percentage Dose per Gram | 3.19 Percentage Dose per Gram | 3.41 Percentage Dose per Gram | 1.35 Percentage Dose per Gram | 5.59 Percentage Dose per Gram | 7.06 Percentage Dose per Gram | 7.52 Percentage Dose per Gram | 6.39 Percentage Dose per Gram | 45% | 45% | 21% | –
2 | O=P(O)(O)CN(CCN(CP(=O)(O)O)CP(=O)(O)O)CP(=O)(O)O.[Ho+3] [Ho-EDTMP] | 54% | 2.33 Percentage Dose per Gram | 1.35 Percentage Dose per Gram | 3.49 Percentage Dose per Gram | 1.25 Percentage Dose per Gram | 4.31 Percentage Dose per Gram | 1.60 Percentage Dose per Gram | 6.95 Percentage Dose per Gram | 5.33 Percentage Dose per Gram | 84% | 50% | 23% | –
3 | O=P(O)(O)CN1CCN(CP(=O)(O)O)CCN(CP(=O)(O)O)CCN(CP(=O)(O)O)CC1.[Sm+3] [Sm-DOTMP] | 22% | 1.40 Percentage Dose per Gram | 4.82 Percentage Dose per Gram | 3.38 Percentage Dose per Gram | 2.06 Percentage Dose per Gram | 6.46 Percentage Dose per Gram | 7.91 Percentage Dose per Gram | 6.79 Percentage Dose per Gram | 8.34 Percentage Dose per Gram | 61% | 50% | 25% | –
4 | O=P(O)(O)CN(CCN(CP(=O)(O)O)CP(=O)(O)O)CP(=O)(O)O.[Sm+3] [Sm-EDTMP] | 38% | 2.05 Percentage Dose per Gram | 5.33 Percentage Dose per Gram | 2.56 Percentage Dose per Gram | 2.04 Percentage Dose per Gram | 5.44 Percentage Dose per Gram | 6.73 Percentage Dose per Gram | 6.17 Percentage Dose per Gram | 5.73 Percentage Dose per Gram | 79% | 41% | 36% | –
5 | O=P([O-])(O)CN1CCN(CP(=O)(O)O)CCN(CP(=O)([O-])O)CCN(CP(=O)(O)O)CC1.[166Ho] [^166Ho-DOTMP] | – | – | – | – | – | – | – | – | – | – | – | – | return to normal appearance of the tibia and fibula
